# Where two headings read alike, the source gives them in different places.
# Assays:
# [1] = PBPK simulation in human (GastroPlus); conditions: optimized by comparing fitting with observed PK data
# From the text: GastroPlus^TM software (version 8.5) was used to perform all simulations, (Simulations Plus, Inc., Lancaster, CA, United States). The absorption of oral formulations from the GI tract was modeled by the advanced compartmental absorption and transit (ACAT^TM) model implemented in GastroPlus ([Agoram et al., 2001]; [Kuentz et al., 2006]; [Huang et al., 2009]; [Zhang et al., 2011]). Input parameters in the ACAT model include three groups: formulation properties, physicochemical properties and pharmacokinetic parameters. […] The immediate release (IR) suspension for rat and IR capsule for human were selected for simulation of buagafuran in GastroPlus^TM. The ACAT model consists of nine compartments that mimic the GI tract. Each GI tract has an associated ASF. ASF is the multiplier used to scale the permeability to account for different surface-to-volume ratios, pH effects, transporter differences, and other factors that affect absorption between different compartments ([Zhang et al., 2011]). Four coefficients C1–C4 are used to calculate ASF. And there are eight basic ASF models in version 8.5. […]
# The pharmacokinetic parameters of unbound fraction in plasma (FUp) were experimentally measured values. […]
# [2] = parameters: method as in Zhang, 1997; Li et al., 2001; Li, 2010; conditions: rat liver microsomes, ref Zhang, 1997, Li et al., 2001, 2010; cited from earlier work
# healthy volunteers = conditions: cited from earlier work
# [3] = Plasma protein binding by equilibrium dialysis, rat plasma; type: in vitro ADME; conditions: 0.5–2 μg/mL
# Experimental: The plasma protein binding of buagafuran (0.5–2 μg/mL) was investigated by equilibrium dialysis. Aliquots (0.5 mL) of plasma were dialyzed against 10 mL phosphate buffered saline containing a ^3H-buagafuran tracer over a membrane with an 8,000- to 12,000-dalton molecular weight cutoff. Dialysis experiment was performed for 60 h at 4 °C. After the dialysis period, 100 μL of the PBS fraction (containing unbound buagafuran) and 100 μL of the plasma fraction (containing both bound and unbound drug) was taken for liquid scintillation counting. The ratio of buagafuran concentration in buffer to that in plasma was applied to calculate the unbound fraction (Fu).
# [4] = Clinical plasma PK in healthy volunteers after oral dosing (observed); type: in vivo; conditions: male, human; for AUC(0-t): read-out: AUC0-t Observed; for AUC(0-inf): read-out: AUC0-∞ Observed; for MRT inf: read-out: MRT(0-∞) Observed
# Experimental: The study protocol was approved by the Ethics Committee of Peking Union Medical College Hospital approved (Permission Number: 09103), and the Informed Consent Form was signed by all subjects before the study. PVP formulation of buagafuran was packed into capsules for oral administration. In a study of open-label, randomized, cross-over and dose-ranging design, 12 healthy male Chinese volunteers (aged 22–40 with weighing 55–70 kg) received a single oral dose of buagafuran (30, 60, and 120 mg). Serial blood samples were collected up to 48 h. In a phase I, randomized and multiple oral dose study, 5 healthy male Chinese volunteers (aged 20–31 with weighing 55–73 kg) received once-daily oral dose of 60 mg buagafuran for 7 days. On day 1 and 7, plasma samples were collected at the designed time points. Detailed clinical data was previously reported ([Yang et al., 2011], [2013]).
# Pharmacokinetic parameters were determined with a non-compartmental model using WinNonlin v 6.0 (Pharsight Corporation, Mountain View, CA, United States). The area under the compound concentration versus time curve from time zero to the last time point (AUC0-t) and extrapolated to infinity (AUC0-∞) and the peak plasma concentration (Cmax) were calculated.
# [5] = oral, 60 mg, multiple dosing (60 mg once daily, 7 days)/first dosing
# [6] = oral, 60 mg, multiple dosing (60 mg once daily, 7 days)/last dosing
# [7] = po, 30 mg, oral single dosing 30 mg
# [8] = po, 60 mg, oral single dosing 60 mg
# [9] = po, 120 mg, oral single dosing 120 mg
compound,measurement,setting,value
CCCCC1=CCC[C@@]2(C)CC[C@@H]3C[C@]12OC3(C)C [buagafuran],input (refined) CLhep,[1],11.7 mL/min/kg
same,extraction ratio,[2],about 50%
same,well tolerated multiple doses,"healthy volunteers; healthy volunteers, phase I, ref Wang et al., 2011, Chen X. et al., 2013, Yang et al.",up to 120 mg twice daily
same,most common side effect,"healthy volunteers; phase I trials, ref Zhang, 1997, Li et al., 2001",drowsiness
same,concentration dependence of plasma protein binding,[3]; rat plasma,no evident concentration-dependent binding
same,fraction unbound at 60 h,"[3]; rat, plasma, equilibrium dialysis, read-out: Fup rat (unbound fraction in rat plasma)",0.031
same,Cmax,[4]; [5],27.1 ng/mL
same,AUC(0-t),[4]; [5],99.4 ng·h/mL
same,AUC(0-inf),[4]; [5],113 ng·h/mL
same,MRT inf,[4]; [5],9.94 h
same,Tmax,"[4]; oral, 60 mg, multiple dosing (60 mg once daily, 7 days)/first dosing, read-out: Tmax Observed",2 h
same,Cmax,[4]; [6],32 ng/mL
same,AUC(0-t),[4]; [6],163 ng·h/mL
same,AUC(0-inf),[4]; [6],231 ng·h/mL
same,MRT inf,[4]; [6],20.9 h
same,Tmax,"[4]; oral, 60 mg, multiple dosing (60 mg once daily, 7 days)/last dosing, read-out: Tmax Observed",3 h
same,Cmax,[4]; [7],19.5 ng/mL
same,AUC(0-t),[4]; [7],47.6 ng·h/mL
same,AUC(0-inf),[4]; [7],54.9 ng·h/mL
same,MRT inf,[4]; [7],3.33 h
same,Tmax,"[4]; po, 30 mg, oral single dosing 30 mg, read-out: Tmax Observed",1 h
same,Cmax,[4]; [8],39.8 ng/mL
same,AUC(0-t),[4]; [8],92.4 ng·h/mL
same,AUC(0-inf),[4]; [8],95.4 ng·h/mL
same,MRT inf,[4]; [8],4.87 h
same,Tmax,"[4]; po, 60 mg, oral single dosing 60 mg, read-out: Tmax Observed",1 h
same,Cmax,[4]; [9],81.6 ng/mL
same,AUC(0-t),[4]; [9],246 ng·h/mL
same,AUC(0-inf),[4]; [9],272 ng·h/mL
same,MRT inf,[4]; [9],5.28 h
same,Tmax,"[4]; po, 120 mg, oral single dosing 120 mg, read-out: Tmax Observed",1 h
same,Tmax,"[4]; po, oral 30–120 mg, read-out: time to peak plasma concentration (Tmax)",0.5 to 2 h
